Laboratory results from ChEMBL document CHEMBL3585240, “Synthesis and biological evaluation of caracasine acid derivatives” (Bioorg Med Chem, 2015).
Activity calls are given as the source filed them. The rule behind the calls is not given here.

Tests used:
Pseudomonas aeruginosa = assay: Antibacterial activity against Pseudomonas aeruginosa ATCC 27853 assessed as growth inhibition at 2 mg/ml after 24 hrs by disc agar diffusion method; type: functional; details: for zone of inhibition at 2000 µg/mL: ATCC 27853, 24 h, read-out: DIZ
Bacillus cereus = assay: Antibacterial activity against Bacillus cereus ATCC 14579 assessed as growth inhibition at 2 mg/ml after 24 hrs by disc agar diffusion method; type: functional; details: for zone of inhibition at 2000 µg/mL: ATCC 14579, 24 h, read-out: DIZ
Staphylococcus aureus = assay: Antibacterial activity against Staphylococcus aureus ATCC 25923 assessed as growth inhibition at 2 mg/ml after 24 hrs by disc agar diffusion method; type: functional; details: for zone of inhibition at 2000 µg/mL: ATCC 25923, 24 h, read-out: DIZ
Escherichia coli = assay: Antibacterial activity against Escherichia coli ATCC 35218 assessed as growth inhibition at 2 mg/ml after 24 hrs by disc agar diffusion method; type: functional; details: for zone of inhibition at 2000 µg/mL: ATCC 35218, 24 h, read-out: DIZ
MCF7 [1] = assay: Cytotoxicity against human MCF7 cells assessed as growth inhibition after 72 hrs by MTT assay; type: functional, cell-based; details: MCF7, 72 h
MCF7 [2] = assay: Selectivity index, ratio of IC50 for human skin fibroblasts to IC50 for human MCF7 cells
PC-3 [3] = assay: Selectivity index, ratio of IC50 for human skin fibroblasts to IC50 for human PC3 cells
[4] = Cytotoxicity against human skin fibroblasts assessed as growth inhibition after 72 hrs by MTT assay; details: Skin fibroblast
PC-3 [5] = assay: Cytotoxicity against human PC3 cells assessed as growth inhibition after 72 hrs by MTT assay; type: functional, cell-based; details: PC-3, 72 h
Leishmania mexicana = assay: Antileishmanial activity against promastigote stage of Leishmania mexicana Bel21 assessed as growth inhibition after 48 hrs by MTT assay; type: functional, organism-based; details: Bel21, 48 h
Trypanosoma cruzi = assay: Antitrypanosomal activity against epimastigote stage of Trypanosoma cruzi CL Brener assessed as growth inhibition after 5 days by MTT assay; type: functional; details: 120 h
[6] = Selectivity index, ratio of IC50 for human skin fibroblasts to IC50 for epimastigote stage of Trypanosoma cruzi CL Brener
[7] = Selectivity index, ratio of IC50 for human skin fibroblasts to IC50 for promastigote stage of Leishmania mexicana Bel21

SMILES | IC50 (Trypanosoma cruzi) | zone of inhibition at 2000 µg/mL (Pseudomonas aeruginosa) | zone of inhibition at 2000 µg/mL (Bacillus cereus) | zone of inhibition at 2000 µg/mL (Staphylococcus aureus) | zone of inhibition at 2000 µg/mL (Escherichia coli) | IC50 (MCF7 [1]) | Ratio IC50 (MCF7 [2]) | Ratio IC50 (PC-3 [3]) | IC50 [4] | IC50 (PC-3 [5]) | IC50 (Leishmania mexicana) | growth inhibition (GI) (Staphylococcus aureus) | growth inhibition (GI) (Escherichia coli) | growth inhibition (GI) (Pseudomonas aeruginosa) | Ratio IC50 [6] | Ratio IC50 [7] | growth inhibition (GI) (Bacillus cereus)
C=C(C)[C@H]1CC[C@@]23C[C@H](CC[C@H]2[C@]1(C)CCC(=O)OC)C(COC)C3=O (stereo partly drawn) | – | 15 mm | 12 mm | 13 mm | 15 mm | – | – | – | – | – | – | – | – | – | – | – | –
C=C1C(=O)[C@@]23CC[C@H](C4(C)CO4)[C@@](C)(CCC(=O)O)[C@@H]2CC[C@H]1C3 (stereo partly drawn) | – | 18 mm | 20 mm | 25 mm | 18 mm | 22.6 µM | 1.1 | 3.9 | 24.7 µM | 6.4 µM | – | – | – | – | – | – | –
C=C(C)[C@H]1CC[C@@]23C[C@H](CC[C@H]2[C@]1(C)CCC(=O)O)C(C)C3=O (stereo partly drawn) | – | 18 mm | 20 mm | – | – | 110 µM | >1.4 | – | > 157 µM | – | > 47 µM | inactive | inactive | – | – | – | –
C=C(C)[C@H]1CC[C@@]23C[C@H](CC[C@H]2[C@]1(C)CCC(=O)O)C(CSCc1ccccc1)C3=O (stereo partly drawn) | 39.3 µM | 15 mm | 20 mm | 22 mm | 25 mm | – | – | – | 42.7 µM | – | 22.1 µM | – | – | – | 1.1 | 1.9 | –
C=C1C(O)[C@@]23CC[C@H](C(=C)C)[C@@](C)(CCC(=O)O)[C@@H]2CC[C@H]1C3 (stereo partly drawn) | – | 20 mm | 15 mm | 12 mm | 12 mm | 86.8 µM | 2.4 | 1.5 | 207 µM | 137 µM | > 30 µM | – | – | – | – | <6.9 | –
C=C(C)[C@H]1CC[C@@]23C[C@H](CC[C@H]2[C@]1(C)CCC(=O)OC)C(CC(C#N)P(=O)(OCC)OCC)C3=O (stereo partly drawn) | – | – | – | – | – | – | – | – | – | – | – | inactive | inactive | inactive | – | – | inactive
C=C1C(=O)[C@@]23CC[C@H](C(=C)C)[C@@](C)(CCC(=O)NC4CCCCC4)[C@@H]2CC[C@H]1C3 | 2.8 µM | 12 mm | 15 mm | 15 mm | 16 mm | 10 µM | 1.2 | 3.1 | 12 µM | 3.9 µM | 2 µM | – | – | – | 4.3 | 6 | –
C=C1C(=O)[C@@]23CC[C@H](C(=C)C)[C@@](C)(CCC(=O)OC4CCCCC4)[C@@H]2CC[C@H]1C3 | 5.5 µM | 30 mm | 12 mm | 30 mm | 28 mm | 2.1 µM | 1.9 | 2.1 | < 3.9 µM | 1.9 µM | 1.2 µM | – | – | – | <0.7 | <3.3 | –
C=C(C)[C@H]1CC[C@@]23C[C@H](CC[C@H]2[C@]1(C)CCC(=O)O)C(CC#N)C3=O (stereo partly drawn) | – | – | – | – | – | 144 µM | 0.5 | – | 51.9 µM | > 138 µM | > 44 µM | inactive | inactive | inactive | – | <1.2 | inactive
C=C(C)[C@H]1CC[C@@]23C[C@H](CC[C@H]2[C@]1(C)CCC(=O)O)C(COCC)C3=O (stereo partly drawn) | – | 15 mm | 10 mm | 12 mm | 14 mm | – | – | – | – | – | – | – | – | – | – | – | –

Now from value to molecule, other results behind:

IC50 (Trypanosoma cruzi) | SMILES | zone of inhibition at 2000 µg/mL (Pseudomonas aeruginosa) | zone of inhibition at 2000 µg/mL (Bacillus cereus) | zone of inhibition at 2000 µg/mL (Staphylococcus aureus) | zone of inhibition at 2000 µg/mL (Escherichia coli) | IC50 (MCF7 [1]) | Ratio IC50 (MCF7 [2]) | Ratio IC50 (PC-3 [3]) | IC50 [4] | IC50 (PC-3 [5]) | IC50 (Leishmania mexicana) | growth inhibition (GI) (Staphylococcus aureus) | growth inhibition (GI) (Escherichia coli) | growth inhibition (GI) (Pseudomonas aeruginosa) | Ratio IC50 [6] | Ratio IC50 [7] | growth inhibition (GI) (Bacillus cereus)
3.1 µM | C=C1C(=O)[C@@]23CC[C@H](C(=C)C)[C@@](C)(CCC(=O)OCCC)[C@@H]2CC[C@H]1C3 | – | 20 mm | 12 mm | – | 6.6 µM | 0.9 | 1.5 | 6.2 µM | 4.2 µM | 1.5 µM | – | inactive | inactive | 2 | 4.1 | –
2.7 µM | C=C1C(=O)[C@@]23CC[C@H](C(=C)C)[C@@](C)(CCC(=O)OCC)[C@@H]2CC[C@H]1C3 | – | – | – | – | 5.1 µM | 0.7 | 0.8 | 3.7 µM | 4.4 µM | 1.6 µM | inactive | inactive | inactive | 1.4 | 2.3 | inactive
42.6 µM | C=C1C(=O)[C@@]23CC[C@H](C(C)(O)CO)[C@@](C)(CCC(=O)O)[C@@H]2CC[C@H]1C3 (stereo partly drawn) | – | 20 mm | – | 15 mm | 46.3 µM | 0.5 | 1.2 | 25.4 µM | 21.9 µM | 42.8 µM | inactive | – | inactive | 0.6 | 0.6 | –
22.3 µM | C=C1C(=O)[C@@]23CC[C@H](C(=C)C)[C@@](C)(CCC(=O)O)[C@@H]2CC[C@H]1C3 | 30 mm | 22 mm | 24 mm | 22 mm | 15.8 µM | 2.5 | 5 | 39.7 µM | 7.9 µM | 30.8 µM | – | – | – | 1.8 | 1.3 | –
4.1 µM | C=C1C(=O)[C@@]23CC[C@H](C(=C)C)[C@@](C)(CCC(=O)OC(C)C)[C@@H]2CC[C@H]1C3 | 15 mm | – | 15 mm | – | 5.4 µM | 1.4 | 1.4 | 7.5 µM | 5.4 µM | 1.5 µM | – | inactive | – | 1.8 | 5 | inactive
4.2 µM | C=C1C(=O)[C@@]23CC[C@H](C(=C)C)[C@@](C)(CCC(=O)OCCCC)[C@@H]2CC[C@H]1C3 | – | – | – | – | 5.6 µM | 1.3 | 1.5 | 7 µM | 4.7 µM | 1.2 µM | inactive | inactive | inactive | 1.7 | 5.8 | inactive
